Source: patent publication US20260364134A1, “AGENT FOR SUPPRESSING AMYLOID BETA AGGREGATION/DEPOSITION AND AGENT FOR SUPPRESSING COGNITIVE FUNCTION DECLINE/IMPROVING COGNITIVE FUNCTION IN A SUBJECT” (KANEKA CORPORATION, priority 2023, published 2026)

What was measured:
[1] = biological target: amyloid β (Aβ) in cerebral organoids (Homo sapiens, UniProt P05067); experiment: Aβ aggregation/deposition suppression in cerebral organoids (QD-Aβ40/Aβ42, fluorescence microscopy); type: cell-based; details: Example 3, 24 hours after addition
Procedure: The end of a 1000-μl tip was cut off with sterilized scissors, and the organoids produced in Example 1 that had grown to a diameter of 1 mm or more were aspirated without disrupting them, and transferred to a U-bottom 96-well plate. […]
The next day, all of the culture supernatant was removed without aspirating the organoid, and 150 μl of fresh NbM medium was added. The cultured organoids were then observed and photographed under a fluorescence microscope.
Using a fluorescence microscope (BZ-X800 manufactured by KEYENCE CORPORATION), the cultured organoids in Example 2 were photographed in a bright field at a high resolution with an exposure time of 1/500 s to 1/2000 s, or at a high sensitivity with an exposure time of 1/2000 s to 1/5000 s, with Z stacks with a pitch of 20 μm. […] Subsequently, to observe the deposition of quantum dot-modified amyloid β in the cultured organoid, red fluorescence was observed using a TRITC lens at a high sensitivity with an exposure time of ¼ s to 1/8.5 s, and images were obtained according to the procedure described above.
Each of the images obtained above was analyzed as follows. […] The threshold of the loaded bright-field image was set to 200, and the organoid area (organoid surface area) was calculated. […]
The black balance level of image processing was adjusted for the fluorescent images of various tests. First, the negative control image was read out. […]

Aβ = details: cited from earlier work

amyloid β (Aβ) in cerebral organoids, sequence (P05067 672-713): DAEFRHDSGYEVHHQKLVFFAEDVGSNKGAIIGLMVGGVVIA

O=C(/C=C/c1ccc(O)c(O)c1)O[C@H](Cc1ccc(O)c(O)c1)C(=O)O [rosmarinic acid, Rosmarinic acid]
Effect of suppressing Aβ aggregation/deposition in cerebral organoids (in words) [1]: not a drug that has an effect of suppressing Aβ aggregation/deposition in cerebral organoids | Aβ aggregation/deposition suppression rate in cerebral organoids ([1]; rosmarinic acid final 50 μM, QD-Aβ40 30 nM, Aβ42 10 μM): 3.9% | effect of suppressing Aβ aggregation (known) (Aβ): known to have an effect of suppressing Aβ aggregation
